Experimental data as given in patent US20010051646A1, “Method for the improvement of islet signaling in diabetes mellitus and for its prevention” (priority 2000, published 2001).
Values joined by “and” are separate entries in the source; they are usually repeats but may differ in a detail not shown here. Equal values may be shown once. “Also recorded” adds a separate entry of the source. Marks after values point to notes of the source that are not given here.

Tests used:
[1] = test system: healthy male volunteers; assay: First-human study of P32/98 with extended OGTT: active GLP-1, insulin and glucose; type: in vivo; settings: for Maximum change in GLP-1, active (0-12h, median) / Maximum change in glucose (0-12h, median) / Maximum change in insulin (0-12h, median): OGTT; for Increase of mean insulin concentration after 75 g glucose at 10 min post-dose: within 40-55 min
Excerpt: The 36 healthy male subjects were divided into 3 individual groups with each group containing 12 subjects. […] The subjects in all groups who were receiving placebo were given placebo at both dosing intervals.
Each subject participated in the pre-study and experimental phase, which were separated by a washout phase of at least 5 days. The follow-up examination was done at least 7 days after the last dose of study drug. The study procedures of the six periods were identical, except for the dose under investigation.
At each glucose tolerance test, subjects ingested 300 mL of a mono-/disaccharid solution equivalent to 75 g glucose (Dextro®O.G.-T, Boehringer Mannheim, FRG).
An extended OGTT was performed on Day 1 of each dosing period. Subjects ingested 300 mL of a mono-/disaccharid solution equivalent to 75 g glucose. […] Additionally other pharmacodynamic assessments that are well known in the art were taken.
Insulin: 4.7 ml blood was collected into 4.9 ml EDTA-tubes. Samples were centrifuged (1500 g, 10 min) and stored frozen at −70° C. until laboratory analysis.
Glucose: 1.2 ml blood was collected into 1.2 ml sodium fluoride tubes. Plasma samples were centrifuged at 1500 g for 10 min and stored frozen at −70° C. until laboratory analysis. GLP-1: 2.7 ml blood was collected in EDTA tubes and placed on ice or refrigerated, to which a dipeptidyl peptidase IV-inhibitor was added. The inhibitor was prepared in advance by researchers. Blood was collected in tubes and centrifuged immediately at 1000 g for 10 min in refrigerated centrifuge or the blood was placed in ice and centrifuged within 1 hour and aliquoted into equal samples. Blood was stored in appropriate aliquots at −70° C. (to avoid multiple freezing/thawing cycles) until laboratory analysis.

[2] = test system: Male Zucker fa/fa rats; assay: OGTT after 21 days treatment: blood glucose and plasma insulin; type: in vivo, rat
Procedure: The parameters monitored were morning blood glucose and plasma insulin levels. […] An OGTT was performed finally on day 21 to monitor blood glucose and plasma insulin kinetics to assess changes in glucose tolerance. Glibenclamide (DAB 1996; R011150/33372) was donated by Berlin-Chemie (Berlin, Germany). Male Zucker (fa/fa) rats of the body weight class of 300 g were purchased from Charles River (Sulzfeld, Germany). Repeated Dosing: 30 male non-diabetic Wistar and 30 male diabetic Zucker rats were randomized to RP (Reference Product: glibenclamide)-, TP- (jest Product: […] Thereafter, the non-diabetic Wistar rats were treated orally once daily with RP (5 mg/kg b.w.) or TP (21.61 mg/kg b.w.) and the diabetic Zucker rats were treated orally once daily with RP (1 mg/kg b.w.) or TP (21.61 mg/kg b.w.) for 21 days at 05.00 p.m. (before regular food intake in the dark phase). The controls were given 1% cellulose solution orally (5 ml/kg). […] The oral drug therapy was continued for one week. […] OGTT: A final OGTT was performed on day 21 with blood sampling from the tail vein. […] The latter were immediately centrifuged and the plasma fractions were stored at −20 ° C. for insulin analysis. Blood glucose: Glucose levels were measured using the glucose oxidase procedure (Super G Glukosemeβgerät; Dr. Müller Gerätebau, Freital, Germany). Plasma insulin: Insulin concentrations were assayed by the antibody RIA method (LINCO Research, Inc. St. Charles, Mo., USA).

isoleucyl thiazolidine hemifumarate [P32/98]
Baseline-corrected mean peak (Cmax) glucose concentration ([1]; 7.5 mg): exceeded 4.0 mmol/l | Mean baseline-corrected glucose AUC ([1]; 7.5 mg): > 200 mmol·min/L | Maximum change in GLP-1, active (0-12h, median) ([1]; 7.5 mg oral single dose): 4.10 pmol/L | Maximum change in glucose (0-12h, median) ([1]; 7.5 mg oral single dose): 4.66 mmol/L | Maximum change in insulin (0-12h, median) ([1]; 7.5 mg oral single dose): 41.86 μIU/ml | Corrected AUC0→180 min of glucose concentrations after OGTT, Mean ± SD ([1]; 7.5 mg, periods 1-3): 299.7 ± 111.4 mmol·min | Corrected Cmax of glucose concentrations 0-3 h after OGTT, Mean ± SD ([1]; 7.5 mg, periods 1-3): 4.94 ± 1.58 mmol | Corrected glucose AUC0→180 min, Estimate (ANOVA comparison versus placebo) ([1]; 7.5 mg, periods 1-3): 75.8 mmol·min | Corrected glucose Cmax, Estimate (ANOVA comparison versus placebo) ([1]; 7.5 mg, periods 1-3): 0.78 mmol | Baseline-corrected mean peak (Cmax) glucose concentration ([1]; 15 mg): below 3.0 mmol/l | Increase of group mean active GLP-1 concentration over pre-dose ([1]; 15 mg): 11.6 pmol/L | Mean baseline-corrected glucose AUC ([1]; 15 mg): below 200 mmol*min/l | Maximum change in GLP-1, active (0-12h, median) ([1]; 15 mg oral single dose): 10.00 pmol/L | Maximum change in glucose (0-12h, median) ([1]; 15 mg oral single dose): 2.43 mmol/L | Maximum change in insulin (0-12h, median) ([1]; 15 mg oral single dose): 29.67 μIU/ml | Mean changes of glucose concentration at maximum ([1]; 15 mg, 60 mg and 240 mg dosing groups): 1.71 to 3.41 mmol/L | Corrected AUC0→180 min of glucose concentrations after OGTT, Mean ± SD ([1]; 15 mg, periods 1-3): 130.9 ± 125.2 mmol·min | Corrected Cmax of glucose concentrations 0-3 h after OGTT, Mean ± SD ([1]; 15 mg, periods 1-3): 2.92 ± 1.10 mmol | Corrected glucose AUC0→180 min, Estimate (ANOVA comparison versus placebo) ([1]; 15 mg, periods 1-3): -93.0 mmol·min | Corrected glucose Cmax, Estimate (ANOVA comparison versus placebo) ([1]; 15 mg, periods 1-3): −1.24* mmol | Maximum change in GLP-1, active (0-12h, median) ([1]; 30 mg oral single dose): 10.60 pmol/L | Maximum change in glucose (0-12h, median) ([1]; 30 mg oral single dose): 3.38 mmol/L | Maximum change in insulin (0-12h, median) ([1]; 30 mg oral single dose): 59.84 μIU/ml | Corrected AUC0→180 min of glucose concentrations after OGTT, Mean ± SD ([1]; 30 mg, periods 1-3): 116.1 ± 134.0 mmol·min | Corrected Cmax of glucose concentrations 0-3 h after OGTT, Mean ± SD ([1]; 30 mg, periods 1-3): 3.26 ± 1.07 mmol | Corrected glucose AUC0→180 min, Estimate (ANOVA comparison versus placebo) ([1]; 30 mg, periods 1-3): -107.7 mmol·min | Corrected glucose Cmax, Estimate (ANOVA comparison versus placebo) ([1]; 30 mg, periods 1-3): -0.90 mmol | Increase of mean insulin concentration after 75 g glucose at 10 min post-dose ([1]; 30 mg): 56.92 μIU/ml | Maximum change in GLP-1, active (0-12h, median) ([1]; 60 mg oral single dose): 12.20 pmol/L | Maximum change in glucose (0-12h, median) ([1]; 60 mg oral single dose): 2.92 mmol/L | Maximum change in insulin (0-12h, median) ([1]; 60 mg oral single dose): 43.35 μIU/ml | Corrected AUC0→180 min of glucose concentrations after OGTT, Mean ± SD ([1]; 60 mg, periods 4-6): 151.8 ± 99.2 mmol·min | Corrected Cmax of glucose concentrations 0-3 h after OGTT, Mean ± SD ([1]; 60 mg, periods 4-6): 3.50 ± 1.66 mmol | Corrected glucose AUC0→180 min, Estimate (ANOVA comparison versus placebo) ([1]; 60 mg, periods 4-6): -101.1 mmol·min | Corrected glucose Cmax, Estimate (ANOVA comparison versus placebo) ([1]; 60 mg, periods 4-6): −1.41* mmol | Maximum change in GLP-1, active (0-12h, median) ([1]; 120 mg oral single dose): 11.10 pmol/L | Maximum change in glucose (0-12h, median) ([1]; 120 mg oral single dose): 2.39 mmol/L | Maximum change in insulin (0-12h, median) ([1]; 120 mg oral single dose): 28.63 μIU/ml | Corrected AUC0→180 min of glucose concentrations after OGTT, Mean ± SD ([1]; 120 mg, periods 4-6): 126.7 ± 147.3 mmol·min | Corrected Cmax of glucose concentrations 0-3 h after OGTT, Mean ± SD ([1]; 120 mg, periods 4-6): 3.09 ± 1.47 mmol | Corrected glucose AUC0→180 min, Estimate (ANOVA comparison versus placebo) ([1]; 120 mg, periods 4-6): −126-1* mmol*min/ | Corrected glucose Cmax, Estimate (ANOVA comparison versus placebo) ([1]; 120 mg, periods 4-6): −1.82** mmol | Increase of mean insulin concentration after 75 g glucose at 10 min post-dose ([1]; 120 mg): 30.12 μIU/ml | Baseline-corrected mean peak (Cmax) glucose concentration ([1]; 240 mg): below 3.0 mmol/l | Increase of group mean active GLP-1 concentration over pre-dose ([1]; 240 mg): 15.99 pmol/L | Mean baseline-corrected glucose AUC ([1]; 240 mg): below 200 mmol*min/l | Maximum change in GLP-1, active (0-12h, median) ([1]; 240 mg oral single dose): 14.50 pmol/L | Maximum change in glucose (0-12h, median) ([1]; 240 mg oral single dose): 1.73 mmol/L | Maximum change in insulin (0-12h, median) ([1]; 240 mg oral single dose): 33.36 μIU/ml | Corrected AUC0→180 min of glucose concentrations after OGTT, Mean ± SD ([1]; 240 mg, periods 4-6): 24.7 ± 66.6 mmol·min | Corrected Cmax of glucose concentrations 0-3 h after OGTT, Mean ± SD ([1]; 240 mg, periods 4-6): 1.99 ± 0.69 mmol | Corrected glucose AUC0→180 min, Estimate (ANOVA comparison versus placebo) ([1]; 240 mg, periods 4-6): −228.2*** mmol*min/ | Corrected glucose Cmax, Estimate (ANOVA comparison versus placebo) ([1]; 240 mg, periods 4-6): −2.92*** mmol | Effect on active GLP-1 ([1]; 7.5-mg dose level): no effect discernible from placebo treatment | Increase of glucose concentrations during the OGTT compared with placebo ([1]; 15-240 mg): significantly lower increase | Insulin concentrations following stimulation with 75 g glucose ([1]; 120-240 mg): appeared to be decreased | Glycemia at the last drug application ([2]; 05.00 p.m., night before day 21): 5.75 ± 0.23 mmol/L | G-AUC in comparison to the placebo application ([2]; day 21): did not increase | Mean blood glucose curve in the OGTT versus controls ([2]; day 21): not different from that of the controls | Blood glucose during OGTT ([2]; day 21, 50 min): 14.54 ± 0.65 mmol/L | Blood glucose during OGTT ([2]; day 21, 120 min): 10.67 ± 0.62 mmol/L | Glycemia after overnight fasting (basal, before OGTT) ([2]; day 21, morning (07.30 a. m.)): 4.88 ± 0.13 mmol/L | Fasting plasma insulin at the beginning of the OGTT ([2]; day 21, overnight fasting, listed as TP): 9.3 ± 1.5 ng/mL and ~9 ng/mL | Plasma insulin after a glucose stimulus ([2]; day 21 OGTT): remained mostly unchanged | Glucose area under the curve (G-AUC0-120 min) ([2]; day 21 OGTT, CO-group 823±41): 895 ± 50 mmol·min/L | I-AUC0-120 min compared with the other groups ([2]; day 21 OGTT, listed as TP): lower than in the CO- or RP-groups (NS); also recorded: slightly lower
